The source of these data is ChEMBL document CHEMBL3217542, “Chiral diaminocyclohexane coupling polyphenols: A new class of anticancer agents” (Medchemcomm, 2012).

Active and inactive are the calls of the source. The calls are words filed in the database; no cut-off is given here.

One may read the IC50 as the concentration at which inhibition is half-maximal.

The test system of assay [1] is MDA-MB-453. Description: Cytotoxicity against human MDA-MB-453 cells after 2 days by SRB assay. Conditions: MDA-MB-453, 48 h. Type of assay: functional, cell-based.
A further assay concerns MDA-MB-468. Kind of assay: Cytotoxicity against human MDA-MB-468 cells after 2 days by SRB assay. Type of assay: functional, cell-based. The note with it: MDA-MB-468, 48 h. In general terms: The SRB assay estimates cell density from bound dye.
Assay [2] can be described thus: Cytotoxicity against human HBT-174 cells after 2 days by SRB assay. The note with it: HBT-174, 48 h. Type of assay: functional, cell-based.
A short description of assay [3]: Selectivity index, ratio of IC50 for human fibroblasts to IC50 for human HBT-174 cells.
Assay [4] has as its system MCF7. Kind of assay: Selectivity index, ratio of IC50 for human fibroblasts to IC50 for human MCF7 cells.
The test system of another assay is MDA-MB-231. Kind of assay: Cytotoxicity against human MDA-MB-231 cells after 2 days by SRB assay. It counts as functional, cell-based. The note with it: MDA-MB-231, 48 h.
For assay [5], the system named is MCF7. Kind of assay: Cytotoxicity against human MCF7 cells after 2 days by SRB assay. Type of assay: functional, cell-based. Conditions: MCF7, 48 h.
The next assay has as its system NCI-H460. Description: Cytotoxicity against human NCI-H460 cells after 2 days by SRB assay. It counts as functional, cell-based. The note with it: NCI-H460, 48 h.
Assay [6] is described as follows: Cytotoxicity against human fibroblasts after 2 days by SRB assay. Conditions: Fibroblast, 48 h. Type of assay: cell-based.
The test system of assay [7] is MCF7. Kind of assay: Reduction of Bcl-xL gene expression in human MCF7 cells at 5 uM after 24 hrs by RT-PCR analysis relative to control. It counts as functional. Also noted: scale not given: the % may be the effect or the level left.
Assay [8] deals with MCF7. Description: Reduction of cyclin-D1 gene expression in human MCF7 cells at 5 uM after 24 hrs by RT-PCR analysis relative to control. It counts as functional. Also noted: scale not given: the % may be the effect or the level left.
Another assay deals with HBT-174. Description: Inhibition of colony formation in human HBT-174 cells assessed as decrease in colony size and number of colony at 0.5 to 5 uM treated every 3 days for 10 days by SRB staining. Type of assay: functional, cell-based.
The test system of assay [9] is MDA-MB-453. Kind of assay: Antimammosphere formation activity in human MDA-MB-453 cells assessed as ALDH positive cells at 1 uM after 4 days relative to control. Type of assay: functional.
Assay [10] has as its system MDA-MB-453. Kind of assay: Antimammosphere formation activity in human MDA-MB-453 cells assessed as ALDH positive cells at 5 uM after 4 days relative to control. Type of assay: functional.
For assay [11], the system named is MDA-MB-453. Description: Antimammosphere formation activity in human MDA-MB-453 cells assessed as ALDH positive cells at 10 uM after 4 days relative to control. It counts as functional.
The test system of assay [12] is MCF7. Description: Reduction of p53 gene expression in human MCF7 cells at 5 uM after 24 hrs by RT-PCR analysis relative to control. It counts as functional. Also noted: scale not given: the % may be the effect or the level left.
Assay [13] has as its system MCF7. Kind of assay: Reduction of Bcl-2 gene expression in human MCF7 cells at 5 uM after 24 hrs by RT-PCR analysis relative to control. Type of assay: functional. Also noted: scale not given: the % may be the effect or the level left.

As to `Oc1ccc(O)c(CN[C@@H]2CCCC[C@H]2NCc2cc(O)ccc2O)c1`, the IC50 in the assay with MDA-MB-453 [1] is 5.2 µM; in the assay on MDA-MB-468 it was 5.9 µM; in assay [2], 8 µM; in the assay with MDA-MB-231, 3.8 µM; with MCF7 [5], 5.2 µM; in the assay with NCI-H460 it was 2.4 µM. The compound also had a half-maximal inhibitory concentration (IC50) in assay [6] of 75 µM. Also, the “Ratio IC50” value in assay [3] is recorded as 9.4; with MCF7 [4], 14.4.

As for `O=C(O)c1ccc(O)c(CN[C@@H]2CCCC[C@H]2NCc2cc(C(=O)O)ccc2O)c1`, the “Ratio IC50” value with MCF7 [4] worked out at 12.8. Also, the figures for the half-maximal inhibitory concentration (IC50) (with MCF7 [5]; in assay [6]) were 8.4 µM and 108 µM, respectively.

Turning to `Oc1ccc(CN[C@@H]2CCCC[C@H]2NCc2ccc(O)c(O)c2)cc1O`, the IC50 with MDA-MB-453 [1] was found to be 1.8 µM; with MDA-MB-468, 1.2 µM; in assay [2], 3.3 µM; in the assay on MDA-MB-231, 1.4 µM; in the assay with MCF7 [5], 2.5 µM; in the assay with NCI-H460, 0.9 µM. In addition, half-maximal inhibition in assay [6] (IC50) was put at 32 µM. Besides, the results for the “Ratio IC50” value (in assay [3]; in the assay with MCF7 [4]) were 9.7 and 12.8, respectively.

Take `Oc1ccc(CN[C@@H]2CCCC[C@H]2NCc2ccc(O)cc2O)c(O)c1`: the concentration for half-maximal inhibition (IC50) amounted to 4.5 µM in the assay on MDA-MB-453 [1]; 4.4 µM in the assay on MDA-MB-468; 8.2 µM in assay [2]; 4 µM in the assay on MDA-MB-231; 6 µM in the assay on MCF7 [5]; 2.2 µM in the assay on NCI-H460. The same compound gave an IC50 in assay [6] of 82 µM. The entries for the “Ratio IC50” value (in assay [3]; with MCF7 [4]) were 10 and 13.7, respectively.

As for `Cc1ccc(O)c(CN[C@@H]2CCCC[C@H]2NCc2cc(C)ccc2O)c1`, in the assay with MCF7 [4], the “Ratio IC50” value was determined as 10.3. Moreover, the IC50 turned out to be 3.6 µM with MCF7 [5] and 37 µM in assay [6].

In the case of `Oc1cccc(CN[C@@H]2CCCC[C@H]2NCc2cccc(O)c2O)c1O`, the Activity with MCF7 [7] is given as 22.2%; with MCF7 [8] it was 24.8%; in the assay with MDA-MB-453 [9], 90%; in the assay with MDA-MB-453 [10], 25%; in the assay on MDA-MB-453 [11], less than 5%; in the assay on MCF7 [12] it was 33.1%. In addition, in the assay with MCF7 [13], the Activity was determined as 15.6%. Further, the IC50 in the assay on MDA-MB-453 [1] was determined as 4.6 µM; in the assay with MDA-MB-468, 3.3 µM; in assay [2] it was 6.8 µM; in the assay on MDA-MB-231, 2.4 µM; with MCF7 [5], 4.8 µM; with NCI-H460, 1.8 µM. For the same compound, inhibition in [6] was half-maximal at 106 µM (IC50). In addition, the inhibition entry in the assay with HBT-174 was “Active”. For the same compound, the entries for the “Ratio IC50” value (in assay [3]; in the assay on MCF7 [4]) were 15.6 and 22.1, respectively.
